Patent US6420330B1, “Use of quaternary carboxylic acid alkanolamine ester salts as microbicide agents” (Cognis Deutschland GmbH, priority 1997, dated 2002)

Assays:
Experiment in all cases: DGHM suspension test, microbicidal activity
Format in all cases: cell-based
[1] = tested on: Candida albicans ATCC 10231
Protocol: (§1) The microbicidal activity of the quanterary carboxylic acid alkanolamine ester salts used in accordance with the invention was tested against the following selected test germs:
(§2) The effectiveness of the compound to be tested was determined by the suspension test in accordance with the guidelines of the Deutsche Gesellschaft for Hygiene and Mikrobiologie (DGHM). Test solutions containing quatemary carboxylic acid alkanolamine ester salts in the quantities shown in the Tables of 50, 100, 200, 400 and 800 mg/l were prepared using water with a hardness of 17° dH and optionally isopropanol.
(§3) At room temperatures, quantities of 0.1 ml test germ suspension were pipetted into test tubes containing 10 ml of the test solutions described above and mixed. After various contact times of 5, 15, 30 and 60 minutes, 1 ml of material was taken from the test tubes by pipette and transferred to 9 ml inactivator solution (inactivators: 3.0% Tween, 0.3% lecithin, 0.1% histidine). After in activation for at least 5 and at most 30 minutes, the living germ count was determined by plating out onto casein peptone-soybean flour peptone (CaSo)-agar plates. Using a spiral plater, the inactivating mixture was directly plated out onto CaSo-agar. The samples were incubated for 24 to 72 hours at 37° C. and macroscopically evaluated for growth. The destruction time or the residual germ count was determined in this way. The germ count of an unchallenged water control is related to the germ count of the inactivated test solution taking the dilution into account. The higher the value, the better the microbicidal effect. The symbol < means that the logarithmic reductuon factor is below the indicated value or, in the case of the symbol >, above the indicated value. The abbreviation CU stands for “concentration used”.

[2] = tested on: Pseudomonas aeruginosa ATCC 15442
Protocol: as §1, §2, §3

[3] = tested on: Staphylococcus aureus ATCC 6538
Protocol: as §1, §2, §3

[4] = CU 50 mg/l, contact time 5 mins.
[5] = CU 50 mg/l, contact time 15 mins.
[6] = CU 50 mg/l, contact time 30 mins.
[7] = CU 50 mg/l, contact time 60 mins.
[8] = CU 100 mg/l, contact time 5 mins.
[9] = CU 100 mg/l, contact time 15 mins.
[10] = CU 100 mg/l, contact time 30 mins.
[11] = CU 100 mg/l, contact time 60 mins.
[12] = CU 200 mg/l, contact time 5 mins.
[13] = CU 200 mg/l, contact time 15 mins.
[14] = CU 200 mg/l, contact time 30 mins.
[15] = CU 200 mg/l, contact time 60 mins.
[16] = CU 400 mg/l, contact time 5 mins.
[17] = CU 400 mg/l, contact time 15 mins.
[18] = CU 400 mg/l, contact time 30 mins.
[19] = CU 400 mg/l, contact time 60 mins.
[20] = CU 800 mg/l, contact time 5 mins.
[21] = CU 800 mg/l, contact time 15 mins.
[22] = CU 800 mg/l, contact time 30 mins.
[23] = CU 800 mg/l, contact time 60 mins.

trimethyl ethanolammonium coconut fatty acid ester methosulfate [Example 4]
logarithmic reduction factor [1, 4]: <0.80 | logarithmic reduction factor [1, 5]: <0.79 | logarithmic reduction factor [1, 6]: 0.91 | logarithmic reduction factor [1, 7]: 1.40 | logarithmic reduction factor [1, 8]: 1.19 | logarithmic reduction factor [1, 9]: 3.01 | logarithmic reduction factor [1, 10]: >4.80 | logarithmic reduction factor [1, 11]: >5.05 | logarithmic reduction factor [1, 12]: 3.43 | logarithmic reduction factor [1, 13]: >4.79 | logarithmic reduction factor [1, 14]: >4.80 | logarithmic reduction factor [1, 15]: >5.05 | logarithmic reduction factor [1, 16]: >4.80 | logarithmic reduction factor [1, 17]: >4.79 | logarithmic reduction factor [1, 18]: >4.80 | logarithmic reduction factor [1, 19]: >5.05 | logarithmic reduction factor [1, 20]: >4.80 | logarithmic reduction factor [1, 21]: >4.79 | logarithmic reduction factor [1, 22]: >4.80 | logarithmic reduction factor [1, 23]: >5.05 | logarithmic reduction factor [2, 4]: <1.51 | logarithmic reduction factor [2, 5]: <1.66 | logarithmic reduction factor [2, 6]: <1.46 | logarithmic reduction factor [2, 7]: <1.47 | logarithmic reduction factor [2, 8]: <1.51 | logarithmic reduction factor [2, 9]: <1.66 | logarithmic reduction factor [2, 10]: <1.46 | logarithmic reduction factor [2, 11]: <1.47 | logarithmic reduction factor [2, 12]: <1.51 | logarithmic reduction factor [2, 13]: <1.66 | logarithmic reduction factor [2, 14]: <1.46 | logarithmic reduction factor [2, 15]: <3.35 | logarithmic reduction factor [2, 16]: <1.51 | logarithmic reduction factor [2, 17]: 3.9 | logarithmic reduction factor [2, 18]: >5.66 | logarithmic reduction factor [2, 19]: >5.47 | logarithmic reduction factor [2, 20]: 4.02 | logarithmic reduction factor [2, 21]: >5.66 | logarithmic reduction factor [2, 22]: >5.66 | logarithmic reduction factor [2, 23]: >5.47 | logarithmic reduction factor [3, 4]: <1.51 | logarithmic reduction factor [3, 5]: <1.36 | logarithmic reduction factor [3, 6]: <1.38 | logarithmic reduction factor [3, 7]: 1.94 | logarithmic reduction factor [3, 8]: <1.51 | logarithmic reduction factor [3, 9]: 1.78 | logarithmic reduction factor [3, 10]: 3.03 | logarithmic reduction factor [3, 11]: 4.02 | logarithmic reduction factor [3, 12]: <1.51 | logarithmic reduction factor [3, 13]: 3.4 | logarithmic reduction factor [3, 14]: 4.38 | logarithmic reduction factor [3, 15]: >5.26 | logarithmic reduction factor [3, 16]: 2.33 | logarithmic reduction factor [3, 17]: 4.14 | logarithmic reduction factor [3, 18]: >5.38 | logarithmic reduction factor [3, 19]: >5.26 | logarithmic reduction factor [3, 20]: 3.12 | logarithmic reduction factor [3, 21]: >5.36 | logarithmic reduction factor [3, 22]: >5.38 | logarithmic reduction factor [3, 23]: >5.26

CCCCCCCC(=O)OCC[N+](C)(CCO)CCOC(=O)CCCCCCC.COS(=O)(=O)[O-] [Example 7, Methyl triethanolammonium dicaprylic acid ester methosulfate]
logarithmic reduction factor [1, 4]: >4.31 | logarithmic reduction factor [1, 5]: >4.18 | logarithmic reduction factor [1, 6]: >4.16 | logarithmic reduction factor [1, 7]: >4.27 | logarithmic reduction factor [1, 8]: >4.31 | logarithmic reduction factor [1, 9]: >4.18 | logarithmic reduction factor [1, 10]: >4.16 | logarithmic reduction factor [1, 11]: >4.27 | logarithmic reduction factor [1, 12]: >4.31 | logarithmic reduction factor [1, 13]: >4.18 | logarithmic reduction factor [1, 14]: >4.16 | logarithmic reduction factor [1, 15]: >4.27 | logarithmic reduction factor [1, 16]: >4.31 | logarithmic reduction factor [1, 17]: >4.18 | logarithmic reduction factor [1, 18]: >4.16 | logarithmic reduction factor [1, 19]: >4.27 | logarithmic reduction factor [1, 20]: >4.31 | logarithmic reduction factor [1, 21]: >4.18 | logarithmic reduction factor [1, 22]: >4.16 | logarithmic reduction factor [1, 23]: >4.27 | logarithmic reduction factor [2, 4]: <1.77 | logarithmic reduction factor [2, 5]: <1.72 | logarithmic reduction factor [2, 6]: <1.76 | logarithmic reduction factor [2, 7]: 3.65 | logarithmic reduction factor [2, 8]: 3.64 | logarithmic reduction factor [2, 9]: >5.72 | logarithmic reduction factor [2, 10]: >5.76 | logarithmic reduction factor [2, 11]: >5.86 | logarithmic reduction factor [2, 12]: 4.59 | logarithmic reduction factor [2, 13]: >5.72 | logarithmic reduction factor [2, 14]: 5.76 | logarithmic reduction factor [2, 15]: >5.86 | logarithmic reduction factor [2, 16]: 5.32 | logarithmic reduction factor [2, 17]: >5.72 | logarithmic reduction factor [2, 18]: >5.76 | logarithmic reduction factor [2, 19]: >5.86 | logarithmic reduction factor [2, 20]: >5.77 | logarithmic reduction factor [2, 21]: >5.72 | logarithmic reduction factor [2, 22]: >5.76 | logarithmic reduction factor [2, 23]: >5.86 | logarithmic reduction factor [3, 4]: >5.75 | logarithmic reduction factor [3, 5]: >5.53 | logarithmic reduction factor [3, 6]: >5.42 | logarithmic reduction factor [3, 7]: >5.69 | logarithmic reduction factor [3, 8]: >5.75 | logarithmic reduction factor [3, 9]: >5.53 | logarithmic reduction factor [3, 10]: >5.42 | logarithmic reduction factor [3, 11]: >5.69 | logarithmic reduction factor [3, 12]: >5.75 | logarithmic reduction factor [3, 13]: >5.53 | logarithmic reduction factor [3, 14]: >5.42 | logarithmic reduction factor [3, 15]: >5.69 | logarithmic reduction factor [3, 16]: >5.75 | logarithmic reduction factor [3, 17]: >5.53 | logarithmic reduction factor [3, 18]: >5.42 | logarithmic reduction factor [3, 19]: >5.69 | logarithmic reduction factor [3, 20]: >5.75 | logarithmic reduction factor [3, 21]: >5.53 | logarithmic reduction factor [3, 22]: >5.42 | logarithmic reduction factor [3, 23]: >5.69
